From the Kinase Knowledgebase extract (Sharma et al. 2016)

Biological target: MAPK14 (human) (UniProt Q16539)
Assay: Assesment of MAPK14 Kinase Activity

Chain of MAPK14 (human) (Q16539 whole entry, looked up): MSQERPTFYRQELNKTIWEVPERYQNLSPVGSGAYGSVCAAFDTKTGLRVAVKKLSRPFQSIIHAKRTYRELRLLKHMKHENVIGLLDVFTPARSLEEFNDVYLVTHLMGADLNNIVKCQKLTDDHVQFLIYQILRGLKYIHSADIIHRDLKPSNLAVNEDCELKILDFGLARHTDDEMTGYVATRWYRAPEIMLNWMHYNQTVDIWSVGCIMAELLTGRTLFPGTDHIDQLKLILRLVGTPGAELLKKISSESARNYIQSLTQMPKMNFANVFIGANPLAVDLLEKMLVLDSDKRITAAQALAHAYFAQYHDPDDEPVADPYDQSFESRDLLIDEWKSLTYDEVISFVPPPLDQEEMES

EC50, ≤ 10 µM:
CC(C)Cn1ncc2cc(Oc3ccc(F)cc3F)c(C(=O)Nc3ccc[nH]c3=O)cc21
CC(C)(F)Cn1ncc2cc(Oc3ccc(F)cc3F)c(C(=O)N[C@H]3CCCCNC3=O)cc21
CC(C)Cn1ncc2cc(Oc3ccc(F)cc3F)c(C(=O)N[C@H]3CCCN(CCO)C3=O)cc21
CC(C)Cn1ncc2cc(Oc3ccc(F)cc3F)c(C(=O)N[C@H]3CCCNC3=O)cc21
CC(C)Cn1ncc2cc(Oc3ccc(F)cc3F)c(C(=O)N[C@H]3CCNC3=O)cc21
CC(C)Cn1ncc2cc(Oc3ccc(F)cc3F)c(C(=O)N[C@H]3CCCCNC3=O)cc21
CC(C)(O)Cn1ncc2cc(Oc3ccc(F)cc3F)c(C(=O)N[C@H]3CCNC3=O)cc21
CC(C)(F)Cn1ncc2cc(Oc3ccc(F)cc3F)c(C(=O)N[C@H]3CCNC3=O)cc21
CC(C)Cn1ncc2cc(Oc3ccc(F)cc3F)c(C(=O)N[C@H]3CCCN(C)C3=O)cc21
CC(C)Cn1ncc2cc(Oc3ccc(F)cc3F)c(C(=O)N[C@H]3CCCCN(C)C3=O)cc21
CC(C)Cn1ncc2cc(Oc3ccc(F)cc3F)c(C(=O)N[C@H]3CCCCN(CCO)C3=O)cc21
CC(C)(F)Cn1ncc2cc(Oc3ccc(F)cc3F)c(C(=O)ON3C(=O)CCC3=O)cc21
CC(C)Cn1ncc2cc(Oc3ccc(F)cc3F)c(C(=O)N[C@H]3CCN(C)C3=O)cc21
CC(C)(F)Cn1ncc2cc(Oc3ccc(F)cc3F)c(C(=O)N[C@H]3CCCNC3=O)cc21
CC(C)Cn1ncc2cc(Oc3ccc(F)cc3F)c(C(=O)N[C@H]3CCN(CCO)C3=O)cc21
